Data published in US9232796B2, “Herbicidal compositions comprising 4-amino-3-chloro-5-fluoro-6-(4-chloro-2-fluoro-3-methoxyphenyl) pyridine-2-carboxylic acid or a derivative thereof and acetyl-CoA carboxylase (ACCase) inhibitors” (DOW AGROSCIENCES LLC, priority 2012, dated 2016).

What was measured:
Assay in all cases: Example IV postemergence foliar-applied, greenhouse, cereal crops weeds
PHAMI = type: in vivo, Phalaris minor Retz.
Experimental: (§1) Seeds of the desired test plant species were planted in Sun Gro MetroMix® 306 planting mixture, which typically has a pH of 6.0 to 6.8 and an organic matter content of about 30 percent, in plastic pots with a surface area of 103.2 square centimeters (cm^2). […] The plants were grown for 7-36 days in a greenhouse with an approximate 14 hour photoperiod which was maintained at about 18° C. during the day and about 17° C. during the night. Nutrients and water were added on a regular basis and supplemental lighting was provided with overhead metal halide 1000-Watt lamps as necessary. The plants were employed for testing when they reached the second or third true leaf stage.
(§2) Treatments consisted of the benzyl ester of 4-amino-3-chloro-5-fluoro-6-(4-chloro-2-fluoro-3-methoxy-phenyl)pyridine-2-carboxylic acid (Compound A), formulated as an SC, a second cereal herbicide alone and then both in combination.
(§3) Other herbicidal components were applied on an active ingredient basis and included acetyl-CoA carboxylase (ACCase)-inhibiting herbicides clodinafop-propargyl, fenoxaprop-P-ethyl, pinoxaden and tralkoxydim.
(§4) Measured aliquots of benzyl ester of 4-amino-3-chloro-5-fluoro-6-(4-chloro-2-fluoro-3-methoxy-phenyl)pyridine-2-carboxylic acid (Compound A) were placed in 25 milliliter (mL) glass vials and diluted in a volume of 1.25% (v/v) Agri-Dex® crop oil concentrate to obtain stock solutions. Compound requirements are based upon a 12 mL application volume at a rate of 187 liters per hectare (L/ha). […] Formulated compounds were applied to the plant material with an overhead Mandel track sprayer equipped with an 8002E nozzle calibrated to deliver 187 L/ha over an application area of 0.503 square meters (m^2) at a spray height of 18 inches (46 cm) above average plant canopy. Control plants were sprayed in the same manner with the solvent blank.
(§5) The treated plants and control plants were placed in a greenhouse as described above and watered by sub-irrigation to prevent wash-off of the test compounds. After 20-22 days, the condition of the test plants as compared with that of the control plants was determined visually and scored on a scale of 0 to 100 percent where 0 corresponds to no injury and 100 corresponds to complete kill.
(§6) Colby's equation was used to determine the herbicidal effects expected from the mixtures (Colby, S. R. 1967. Calculation of the synergistic and antagonistic response of herbicide combinations. Weeds 15:20-22.).
(§7) The following equation was used to calculate the expected activity of mixtures containing two active ingredients, A and B: Expected=A+B−(A×B/100)

LOLMU = type: in vivo, Lolium multiflorum Lam.
Experimental: (§8) Seeds of the desired test plant species were planted in Sun Gro MetroMix® 306 planting mixture, which typically has a pH of 6.0 to 6.8 and an organic matter content of about 30 percent, in plastic pots with a surface area of 103.2 square centimeters (cm^2). When required to ensure good germination and healthy plants, a fungicide treatment and/or other chemical or physical treatment was applied. The plants were grown for 7-36 days in a greenhouse with an approximate 14 hour photoperiod which was maintained at about 18° C. during the day and about 17° C. during the night. Nutrients and water were added on a regular basis and supplemental lighting was provided with overhead metal halide 1000-Watt lamps as necessary. The plants were employed for testing when they reached the second or third true leaf stage.
as §2, §3
(§9) Measured aliquots of benzyl ester of 4-amino-3-chloro-5-fluoro-6-(4-chloro-2-fluoro-3-methoxy-phenyl)pyridine-2-carboxylic acid (Compound A) were placed in 25 milliliter (mL) glass vials and diluted in a volume of 1.25% (v/v) Agri-Dex® crop oil concentrate to obtain stock solutions. Compound requirements are based upon a 12 mL application volume at a rate of 187 liters per hectare (L/ha). Spray solutions of the second cereal herbicide and experimental compound mixtures were prepared by adding the stock solutions to the appropriate amount of dilution solution to form 12 mL spray solution with active ingredients in two- and three-way combinations. Formulated compounds were applied to the plant material with an overhead Mandel track sprayer equipped with an 8002E nozzle calibrated to deliver 187 L/ha over an application area of 0.503 square meters (m^2) at a spray height of 18 inches (46 cm) above average plant canopy. Control plants were sprayed in the same manner with the solvent blank.
as §5, §6, §7

ALOMY = type: in vivo, Alopecurus myosuroides Huds.
Experimental: as §8, §2, §3, §9
as §5, with “kill. […]” for “kill.”

APESV = type: in vivo, Apera spica-venti (L.) Beauv.
Experimental: as §1, §2, §3, §4, §5, §6, §7

KCHSC = type: in vivo, Kochia scoparia (L.) Schrad.
Experimental: as §1, §2, §3, §4, §5, §6, §7

[1] = Compound A Benzyl Ester 5 gai/ha
[2] = Compound A Benzyl Ester 10 gai/ha

COc1c(Cl)ccc(-c2nc(C(=O)OCc3ccccc3)c(Cl)c(N)c2F)c1F [Compound A Benzyl Ester, benzyl ester of 4-amino-3-chloro-5-fluoro-6-(4-chloro-2-fluoro-3-methoxy-phenyl)pyridine-2-carboxylic acid]
30%: Visual Weed Control (%) - 21 DAA KCHSC Obs (KCHSC; [2])
0%: Visual Weed Control (%) - 21 DAA PHAMI Obs (PHAMI; [1]) | Visual Weed Control (%) - 21 DAA PHAMI Obs (PHAMI; [2]) | Visual Weed Control (%) - 21 DAA LOLMU Obs (LOLMU; [1]) | Visual Weed Control (%) - 21 DAA LOLMU Obs (LOLMU; [2]) | Visual Weed Control (%) - 21 DAA ALOMY Obs (ALOMY; [1]) | Visual Weed Control (%) - 21 DAA ALOMY Obs (ALOMY; [2]) | Visual Weed Control (%) - 21 DAA APESV Obs (APESV; [1]) | Visual Weed Control (%) - 21 DAA APESV Obs (APESV; [2])
20%: Visual Weed Control (%) - 21 DAA KCHSC Obs (KCHSC; [1])
